In this test the target is T1, CSN5 (COP-9 signalosome deneddylase subunit) (Homo sapiens, UniProt Q92905).
T1 construct: gene COPS5; purified CSN complex; with COP9 signalosome (CSN) complex; substrate Nedd8-conjugated SCF^Skp2 (Cullin-1)
Kind of test: fluorescence polarization deneddylation assay with purified CSN and Oregon Green-Nedd8-SCF^Skp2. It counts as biochemical. For orientation: Polarisation of emitted light reports the rotation of a fluorescent probe.

The text below walks through data of article PMC4558116, “Inhibition of COP9-signalosome (CSN) deneddylating activity and tumor growth of diffuse large B-cell lymphomas by doxycycline” (Oncotarget, 2015).

For orientation: IC50 means the concentration at which inhibition is half-maximal. Lower therefore signals greater potency in that assay.

T1 sequence (Q92905 2-334): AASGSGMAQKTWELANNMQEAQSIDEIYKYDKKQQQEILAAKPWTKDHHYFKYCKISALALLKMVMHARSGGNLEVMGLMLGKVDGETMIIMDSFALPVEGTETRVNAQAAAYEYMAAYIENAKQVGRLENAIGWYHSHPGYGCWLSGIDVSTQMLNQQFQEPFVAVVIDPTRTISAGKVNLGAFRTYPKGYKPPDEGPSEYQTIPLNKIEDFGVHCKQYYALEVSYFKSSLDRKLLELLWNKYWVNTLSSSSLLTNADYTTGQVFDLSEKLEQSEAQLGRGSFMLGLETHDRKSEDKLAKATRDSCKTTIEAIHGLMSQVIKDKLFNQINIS

In the case of `C[C@H]1c2cccc(O)c2C(=O)C2=C(O)[C@]3(O)C(=O)C(C(N)=O)=C(O)[C@@H](N(C)C)[C@@H]3[C@@H](O)[C@@H]21` [doxycycline], the IC50 is around 110 µM.
